# Source: patent US9708251B2, “Unsaturated fatty alcohol alkoxylates from natural oil metathesis” (Stepan Company, priority 2012, dated 2017)
# How the values were obtained:
# [1] = Emulsion stability testing of nonionic emulsifiers, aromatic solvent series; assay type: physicochemical; design: key to 24 h separation, appearance / 1 h separation, appearance / 1 h separation, amount: C = creamy; CO = creamy oil; O = oil; GC = gritty cream; NS = no separation; OC = oily cream; key to Spon. (spontaneity): G = good; F = fair; P = poor
# Protocol: (§1) Nonionic samples contain a low amount of water (<1%) and are prepared as emulsifiable concentrates with three pesticides using two different solvent systems. In the aromatic solvent series, the nonionic sample replaces Toximul® 8240 (castor oil ethoxylate, 36 POE, Stepan), and in the Hallcomid™ (N,N-dimethylcaprylamide/N,N-dimethylcapramide, Stepan) solvent series, the nonionic sample replaces Ninex® MT-630F.
# Sample preparation: Ninate® 60E (calcium alkylbenzenesulfonate, Stepan) and the test sample are stirred until homogeneous. […] Controls 1-3 are made by using Toximul 8240 in the amounts indicated instead of the nonionic sample.
# Formulations: • 1. Bifenthrin, 240 g/L (2.99 g), Aromatic 100 (ExxonMobil, 8.05 g), Ninate 60E (0.38 g), and nonionic sample or Toximul 8240 (0.58 g). • 2. 2,4-D ester, 480 g/L (8.90 g), Exxsol® D-110 (ExxonMobil, 2.50 g), Ninate 60E (0.36 g), and nonionic sample or Toximul 8240 (0.24 g). • 3. Tebuconazole, 360 g/L (4.45 g), N-methyl-2-pyrrolidone (6.35 g), Ninate 60E (0.48 g), nonionic sample or Toximul 8240 (0.72 g).
# (§2) Emulsion Stability Testing
# (§3) A Mohr pipette is used to feed pesticide/surfactant concentrates to each cylinder.
# [2] = Emulsion stability testing of nonionic emulsifiers, Hallcomid solvent series; assay type: physicochemical; design: key to 24 h separation, appearance / 1 h separation, appearance / 1 h separation, amount: C = creamy; CO = creamy oil; O = oil; GC = gritty cream; NS = no separation; OC = oily cream; key to Spon. (spontaneity): G = good; F = fair; P = poor
# Protocol: as §1
# (§4) Hallcomid Solvent Series.
# (§5) Sample preparation: The surfactants are combined and stirred until homogeneous, with the nonionic sample melted if needed prior to combination. Controls 1-3 are made by using Ninex MT-630F in the amounts indicated instead of the nonionic sample.
# as §2, §3
# [3] = Surfactant phase behavior study (cross-polarized microscopy); assay type: physicochemical; conditions: room temperature, in deionized water
# Protocol: Phase behavior is observed using an Olympus BH-2 cross-polarized microscope at 100-400× and room temperature (20° C. to 22° C.). The inventive monounsaturated alcohol ethoxylates are compared with their saturated analogs.
# Samples are prepared by diluting the most concentrated product gradually with deionized water. When the surfactant concentration approaches a phase transition, the concentration is varied at 2-4% intervals to estimate the phase boundary. The actives level reported in Table 4 for each phase boundary is within ±5% of the true boundary.
# Samples are loaded between a microscope slide and cover glass and are allowed to equilibrate before observation. Microscopic texture is analyzed and used to determine the phase. For some samples, an AR 2000 rheometer (TA Instruments) is used to measure viscosity at 25° C. to further verify phase behavior.
# [4] = 0.4 wt. % active, 342 ppm hard water
# Protocol: Surfactant solution (100 mL) is carefully transferred to a stainless-steel mixing cup, then mixed at high speed (27K rpm) using a Hamilton Beach mixer for 10 s. The contents are quickly poured into a 100-mL graduated cylinder to the 100-mL mark, and a stopwatch is immediately started. The amount of liquid settling in the cylinder is recorded every 15 s for 4 min. Less liquid drained indicates greater foam stability.
# [5] = Emulsion stability testing of nonionic emulsifiers, Hallcomid solvent series; assay type: physicochemical; design: key: C = creamy; CO = creamy oil; O = oil; GC = gritty cream; NS = no separation; OC = oily cream
# Protocol: as §1, §4, §5, §2, §3
# [6] = 2,4-D ester 480 g/L in Exxsol D-110, 34 ppm water
# [7] = 2,4-D ester 480 g/L in Exxsol D-110, 1000 ppm water
# [8] = Bifenthrin 240 g/L in Aromatic 100, 34 ppm water
# [9] = Bifenthrin 240 g/L in Aromatic 100, 1000 ppm water
# [10] = Tebuconazole 360 g/L in N-methyl-2-pyrrolidone, 34 ppm water
# [11] = Tebuconazole 360 g/L in N-methyl-2-pyrrolidone, 1000 ppm water
# [12] = 2,4-D diester 480 g/L in Hallcomid M-8-10, 34 ppm water
# [13] = 2,4-D diester 480 g/L in Hallcomid M-8-10, 1000 ppm water
# [14] = Bifenthrin 240 g/L in Hallcomid M-8-10, 34 ppm water
# [15] = Bifenthrin 240 g/L in Hallcomid M-8-10, 1000 ppm water
# [16] = Tebuconazole 360 g/L in Hallcomid M-8-10, 34 ppm water
# [17] = Tebuconazole 360 g/L in Hallcomid M-8-10, 1000 ppm water
smiles,measurement,setting,value
C=CCCCCCCCCOCCOCCOCCOCCOCCOCCOCCO [A10-13],"1 h separation, amount",[1]; [6],2.8 mL
same,"1 h separation, appearance",[1]; [6],C
same,"24 h separation, amount",[1]; [6],4.6 mL
same,"24 h separation, appearance",[1]; [6],C
same,Spon. (spontaneity),[1]; [6],G
same,"1 h separation, amount",[1]; [7],3.9 mL
same,"1 h separation, appearance",[1]; [7],CO
same,"24 h separation, amount",[1]; [7],"1 O, 4 CO"
same,Spon. (spontaneity),[1]; [7],F
same,"1 h separation, amount",[1]; [8],3 mL
same,"1 h separation, appearance",[1]; [8],C
same,"24 h separation, amount",[1]; [8],5.8 mL
same,"24 h separation, appearance",[1]; [8],C
same,Spon. (spontaneity),[1]; [8],F
same,"1 h separation, amount",[1]; [9],NS
same,"24 h separation, amount",[1]; [9],2.6 mL
same,"24 h separation, appearance",[1]; [9],O
same,Spon. (spontaneity),[1]; [9],G
same,"1 h separation, amount",[1]; [10],"1.5 CO, 0.5 C"
same,"24 h separation, amount",[1]; [10],2.8 mL
same,"24 h separation, appearance",[1]; [10],CO
same,Spon. (spontaneity),[1]; [10],P
same,"1 h separation, amount",[1]; [11],2.1 mL
same,"1 h separation, appearance",[1]; [11],CO
same,"24 h separation, amount",[1]; [11],3.5 mL
same,"24 h separation, appearance",[1]; [11],CO
same,Spon. (spontaneity),[1]; [11],P
same,"1 h separation, amount",[2]; [12],4.5 mL
same,"1 h separation, appearance",[2]; [12],C
same,"24 h separation, amount",[2]; [12],8.2 mL
same,"24 h separation, appearance",[2]; [12],C
same,Spon. (spontaneity),[2]; [12],P
same,"1 h separation, amount",[2]; [13],5 mL
same,"1 h separation, appearance",[2]; [13],C
same,"24 h separation, amount",[2]; [13],7.8 mL
same,"24 h separation, appearance",[2]; [13],C
same,Spon. (spontaneity),[2]; [13],F
same,"1 h separation, amount",[2]; [14],NS
same,Spon. (spontaneity),[2]; [14],G
same,"1 h separation, amount",[2]; [15],6.4 mL
same,"1 h separation, appearance",[2]; [15],CO
same,"24 h separation, amount",[2]; [15],6 mL
same,"24 h separation, appearance",[2]; [15],O
same,Spon. (spontaneity),[2]; [15],F
same,"1 h separation, amount",[2]; [16],2.1 mL
same,"1 h separation, appearance",[2]; [16],C
same,"24 h separation, amount",[2]; [16],4.9 mL
same,"24 h separation, appearance",[2]; [16],C
same,Spon. (spontaneity),[2]; [16],F
same,"1 h separation, amount",[2]; [17],3 mL
same,"1 h separation, appearance",[2]; [17],C
same,"24 h separation, amount",[2]; [17],5.5 mL
same,"24 h separation, appearance",[2]; [17],C
same,Spon. (spontaneity),[2]; [17],F
same,Isotropic Clear phase region,[3],0-100 % Actives Level
same,Liquid volume at drain time 0.5 min,[4],0.50 mL
same,Liquid volume at drain time 1.0 min,[4],2.25 mL
same,Liquid volume at drain time 1.5 min,[4],4.00 mL
same,Liquid volume at drain time 2.0 min,[4],6.00 mL
same,Liquid volume at drain time 2.5 min,[4],7.50 mL
same,Liquid volume at drain time 3.0 min,[4],9.50 mL
same,Liquid volume at drain time 3.5 min,[4],11.50 mL
same,Liquid volume at drain time 4.0 min,[4],13.25 mL
same,"24 h separation, amount",[5]; [14],NS
C=CCCCCCCCCOCCOCCOCCOCCOCCOCCOCCOCCOCCOCCOCCOCCOCCOCCOCCO [A10-16],"1 h separation, amount",[1]; [6],2.6 mL
same,"1 h separation, appearance",[1]; [6],C
same,"24 h separation, amount",[1]; [6],5 mL
same,"24 h separation, appearance",[1]; [6],C
same,Spon. (spontaneity),[1]; [6],P
same,"1 h separation, amount",[1]; [7],2.8 mL
same,"1 h separation, appearance",[1]; [7],C
same,"24 h separation, amount",[1]; [7],3.9 mL
same,"24 h separation, appearance",[1]; [7],C
same,Spon. (spontaneity),[1]; [7],P
same,"1 h separation, amount",[1]; [8],7 mL
same,"1 h separation, appearance",[1]; [8],C
same,"24 h separation, amount",[1]; [8],7 mL
same,"24 h separation, appearance",[1]; [8],C
same,Spon. (spontaneity),[1]; [8],P
same,"1 h separation, amount",[1]; [9],6 mL
same,"1 h separation, appearance",[1]; [9],C
same,"24 h separation, amount",[1]; [9],4.8 mL
same,"24 h separation, appearance",[1]; [9],CO
same,Spon. (spontaneity),[1]; [9],P
same,"1 h separation, amount",[1]; [10],1 mL
same,"1 h separation, appearance",[1]; [10],C
same,"24 h separation, amount",[1]; [10],3.5 mL
same,"24 h separation, appearance",[1]; [10],CO
same,Spon. (spontaneity),[1]; [10],P
same,"1 h separation, amount",[1]; [11],1.2 mL
same,"1 h separation, appearance",[1]; [11],C
same,"24 h separation, amount",[1]; [11],2 mL
same,"24 h separation, appearance",[1]; [11],CO
same,Spon. (spontaneity),[1]; [11],P
same,"1 h separation, amount",[2]; [12],4.4 mL
same,"1 h separation, appearance",[2]; [12],C
same,"24 h separation, amount",[2]; [12],8.5 mL
same,"24 h separation, appearance",[2]; [12],C
same,Spon. (spontaneity),[2]; [12],P
same,"1 h separation, amount",[2]; [13],4.8 mL
same,"1 h separation, appearance",[2]; [13],C
same,"24 h separation, amount",[2]; [13],7.6 mL
same,"24 h separation, appearance",[2]; [13],C
same,Spon. (spontaneity),[2]; [13],P
same,"1 h separation, amount",[2]; [14],NS
same,Spon. (spontaneity),[2]; [14],G
same,"1 h separation, amount",[2]; [15],5.5 mL
same,"1 h separation, appearance",[2]; [15],CO
same,"24 h separation, amount",[2]; [15],5.4 mL
same,"24 h separation, appearance",[2]; [15],O
same,Spon. (spontaneity),[2]; [15],F
same,"1 h separation, amount",[2]; [16],1 mL
same,"1 h separation, appearance",[2]; [16],C
same,Spon. (spontaneity),[2]; [16],F
same,"1 h separation, amount",[2]; [17],2 mL
same,"1 h separation, appearance",[2]; [17],C
same,"24 h separation, amount",[2]; [17],4.7 mL
same,"24 h separation, appearance",[2]; [17],C
same,Spon. (spontaneity),[2]; [17],F
same,Paste phase region,[3],93-100 % Actives Level
same,"24 h separation, amount",[5]; [14],NS
same,"24 h separation, amount",[5]; [16],NS
